The test concerns BDF1 mice, Adenocarcinoma 755 s.c., tumor weight T/C. Briefly: NCI In Vivo Anticancer Drug Screen. Data for tumor model Adenocarcinoma 755 (subcutaneous) in B6D2F1 (BDF1) mice. Conditions: endpoint: mean tumor weight, schedule: Q01DX011 (ip), higher = larger tumour. An outline of the steps:
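Compound activity was tested in mice carrying transplanted tumors. Survival or tumor size was measured, and each value is the treated-group measurement divided by that of the vehicle-treated control group (T/C).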

Consider seven compounds from PubChem BioAssay AID180 (DTP/NCI, 2004).

As for `CN(C)c1ccc(/C=C\c2ccnc3ccccc23)cc1`, the T/C (commonly the result in the treated group divided by that in the control group, in per cent) (dose: 3.1 mg/kg/injection, vehicle: water) was 100 % of control; the T/C (dose: 5.0 mg/kg/injection, vehicle: methylcellulose (MC)) was 96 % of control; the T/C (dose: 6.25 mg/kg/injection, vehicle: water) is 97 % of control; the T/C (dose: 10.0 mg/kg/injection, vehicle: methylcellulose (MC)) was 96 % of control; the T/C (dose: 12.5 mg/kg/injection, vehicle: water) was 90 % of control; the T/C (dose: 20.0 mg/kg/injection, vehicle: methylcellulose (MC)) was 86 % of control. Further, the T/C (dose: 25.0 mg/kg/injection, vehicle: water) was 81 % of control; the T/C (dose: 50.0 mg/kg/injection, vehicle: water) is 55 % of control; the T/C (dose: 100.0 mg/kg/injection, vehicle: water) is 64 % of control.

For `C=C(C)[C@H]1Cc2c(ccc3c2O[C@@H]2COc4cc(OC)c(OC)cc4[C@@H]2C3=O)O1`, the T/C is 93 % of control (dose: 0.5 mg/kg/injection, vehicle: water); 96 % of control (dose: 0.75 mg/kg/injection, vehicle: water); 74 % of control (dose: 1.0 mg/kg/injection, vehicle: water); 88 % of control (dose: 2.0 mg/kg/injection, vehicle: water).

As for `Nc1nc(Nc2ccccc2Cl)cc(=O)[nH]1`, the T/C is, setting by setting: (dose: 15.0 mg/kg/injection, vehicle: methylcellulose (MC)) 119 % of control; (dose: 62.0 mg/kg/injection, vehicle: methylcellulose (MC)) 95 % of control.

Take `Cn1c(=O)c2[nH]c(N/N=C/c3ccccc3C(=O)O)nc2n(C)c1=O`: the T/C (dose: 30.0 mg/kg/injection, vehicle: carboxymethylcellulose (CMC)) is 103 % of control; the T/C (dose: 60.0 mg/kg/injection, vehicle: carboxymethylcellulose (CMC)) was 92 % of control; the T/C (dose: 120.0 mg/kg/injection, vehicle: carboxymethylcellulose (CMC)) is 88 % of control; the T/C (dose: 240.0 mg/kg/injection, vehicle: carboxymethylcellulose (CMC)) was 95 % of control.

For `CCSCCC(N)C(=O)O` (stereo unspecified), the T/C reads like this: (dose: 13.13 mg/kg/injection, vehicle: carboxymethylcellulose (CMC)) 171 % of control; (dose: 18.0 mg/kg/injection, vehicle: methylcellulose (MC)) 86 % of control; (dose: 20.5 mg/kg/injection, vehicle: carboxymethylcellulose (CMC)) 99 % of control; (dose: 26.25 mg/kg/injection, vehicle: carboxymethylcellulose (CMC)) 118 % of control; (dose: 37.5 mg/kg/injection, vehicle: methylcellulose (MC)) 107 % of control; (dose: 52.5 mg/kg/injection, vehicle: carboxymethylcellulose (CMC)) 121 % of control. The T/C was 46 % of control (dose: 56.5 mg/kg/injection, vehicle: carboxymethylcellulose (CMC)); 65 % of control (dose: 82.0 mg/kg/injection, vehicle: carboxymethylcellulose (CMC)); 156 % of control (dose: 90.4 mg/kg/injection, vehicle: other); 93 % of control (dose: 105.0 mg/kg/injection, vehicle: carboxymethylcellulose (CMC)); 38 % of control (dose: 113.0 mg/kg/injection, vehicle: carboxymethylcellulose (CMC)); 109 % of control (dose: 113.0 mg/kg/injection, vehicle: other). Moreover, the T/C runs as follows: (dose: 150.66 mg/kg/injection, vehicle: other) 37 % of control; (dose: 226.0 mg/kg/injection, vehicle: carboxymethylcellulose (CMC)) 84 % of control; (dose: 226.0 mg/kg/injection, vehicle: other) 49 % of control.

With `NC1=CC(=O)c2cccnc2C1=O`, the T/C was 111 % of control (dose: 6.5 mg/kg/injection, vehicle: water); 87 % of control (dose: 10.0 mg/kg/injection, vehicle: water); 69 % of control (dose: 15.0 mg/kg/injection, vehicle: water).

Turning to `Cn1cc(F)c(=O)[nH]c1=O`, the T/C is, setting by setting: (dose: 5.0 mg/kg/injection, vehicle: carboxymethylcellulose (CMC)) 86 % of control; (dose: 10.0 mg/kg/injection, vehicle: carboxymethylcellulose (CMC)) 117 % of control; (dose: 20.0 mg/kg/injection, vehicle: carboxymethylcellulose (CMC)) 87 % of control; (dose: 40.0 mg/kg/injection, vehicle: carboxymethylcellulose (CMC)) 99 % of control.
